From patent US20140094462A1, “SONIC HEDGEHOG MODULATORS” (priority 2009, published 2014)
Read-outs that look alike come from different tables or passages of the source.

Legend:
[1] = rcm bond, 12-membered ring
[2] = rcm bond, toluene
ShhN protein = biological target: T1, ShhN protein (Homo sapiens, UniProt Q15465); assay: Surface Plasmon Resonance (SPR) protein binding assay on immobilized ShhN; conditions: SPR, Biacore T100, ShhN immobilized on CM4 chip, 25° C., compound 0.78 μM-25 μM; read-out: KD
T1 construct: auto-cleavage of full length Shh into an active 20 kD N-terminal fragment (ShhN); purchased R&D Systems
T1 sequence (Q15465 24-197 limits assumed, species assumed): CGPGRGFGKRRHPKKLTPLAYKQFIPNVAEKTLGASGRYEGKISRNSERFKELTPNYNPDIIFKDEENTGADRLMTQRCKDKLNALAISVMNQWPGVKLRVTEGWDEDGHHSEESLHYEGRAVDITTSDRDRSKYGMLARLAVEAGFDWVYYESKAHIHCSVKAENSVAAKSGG
Method in brief: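 Binding to immobilized ShhN measured on a Biacore T100 at 25°C. Signals referenced against underivatized control surfaces, with zero-concentration blank cycles included. Solvent correction applied.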

Gli1 = assay: Primary keratinocyte cell culture, reduction in Gli mRNA; type: cell-based; conditions: primary human keratinocytes
Experimental: To study the potency of the compounds of the invention in cells, select compounds of the invention were conducted with keratinocytes and the reduction in Gli mRNA was measured. Culturing of primary human keratinocytes was previously described (Nguyen, B. C., et al., Genes & Dev. 20:1028-1042 (2006)). The full thickness skin model, EpiDermFT System (MatTek, Ashland), consisted of normal, human-derived epidermal keratinocytes and normal, human-derived dermal fibroblasts which have been cultured to form a multilayered, highly differentiated model of the human dermis and epidermis. […] Gene expression is compared by quantifying mRNA levels by real time RT-PCR. For this, total RNA preparations […] are used in a reverse transcriptase reaction with a mix of oligonucleotide dT and random hexamer primers, followed by real time PCR with gene-specific primers (Gli1: Qiagen Quantitect PrimerAssay QT00060501; Gli2: Qiagen Quantitect PrimerAssay QT00018648), using an […] real time detection system (Bio-Rad) according to the manufacturer's recommendation, with SYBR Green (Bio-Rad) for detection.

C3H10T1/2 = assay: Induction of osteogenic differentiation (modulation of osteoblast differentiation); conditions: Mus musculus, C3H 10T1/2, read-out: IC50 (nM) C3H10T1/2
Excerpt: Using assays previously described in Dwyer et al., J. Biol. Chem. 282, (2007), 8959-68 and Nakamura et al., Biochm. […] Res. Comm., 237 (1997) 465-9, select compounds of the invention were screened for their ability to modulate osteoblast differentiation.

Row | Compound | Kd (ShhN protein) | IC50 (Gli1) | IC50 (C3H10T1/2) | also measured
1 | CC(C)(C)OC(=O)C[C@@H]1C/C=C/CCC(=O)O[C@H](c2ccccc2)CNC1=O |  |  |  | ring closure, isolated yield ([1]; from C=CCCC(=O)O[C@@H](CNC(=O)[C@@H](CC=C)CC(=O)OC(C)(C)C)c1ccccc1, Grubbs II (10 mol%), toluene, 10.0 mM, 65.0 °C, 7.0 h): 73%; ring closure, yield of all isomers ([2]; from C=CCCC(=O)O[C@@H](CNC(=O)[C@@H](CC=C)CC(=O)OC(C)(C)C)c1ccccc1, Grubbs 2nd Generation catalyst, 10.0 mM, 65.0 °C, 7.0 h): 73%
2 | CC(C)(C)OC(=O)N[C@@H]1C/C=C/CCC(=O)N[C@H](c2ccc(F)cc2)COC1=O |  |  |  | ring closure, isolated yield ([1]; from C=CCCC(=O)N[C@@H](COC(=O)[C@@H](CC=C)NC(=O)OC(C)(C)C)c1ccc(F)cc1, Grubbs II (10 mol%), DCM, 9.9 mM): 85%
3 | CCO[Si](OCC)(OCC)C1=CCC(C)(C)C(=O)OC[C@@H](c2ccccc2)NC(=O)CC1 |  |  |  | ring closure, isolated yield ([1]; from C=CCC(C)(C)C(=O)OC[C@H](NC(=O)CCC(=C)[Si](OCC)(OCC)OCC)c1ccccc1, general RCM procedure (catalyst not printed here), toluene): 6%; ring closure, yield of all isomers ([2]; from C=CCC(C)(C)C(=O)OC[C@H](NC(=O)CCC(=C)[Si](OCC)(OCC)OCC)c1ccccc1): 6%
4 | C[C@@H]1C/C=C/CCC(=O)N[C@H](c2ccccc2)CC(=O)O1 |  |  |  | ring closure, isolated yield ([1]; from C=CCCC(=O)N[C@H](CC(=O)O[C@@H](C)CC=C)c1ccccc1, Grubbs II (10 mol%), toluene, 10.0 mM): 79%
5 | C[C@@H]1C/C=C/CCNC(=O)[C@H](c2ccccc2)COC1=O |  |  |  | ring closure, isolated yield ([1]; from C=CCCNC(=O)[C@@H](COC(=O)[C@H](C)CC=C)c1ccccc1, Grubbs II (10 mol%), toluene, 10.0 mM, 2 steps): 63%
6 | C[C@H]1C/C=C/CCCN[C@H](c2ccccc2)COC1=O |  |  |  | ring closure, isolated yield ([1]; from C=CCCCN[C@@H](COC(=O)C(C)CC=C)c1ccccc1, general RCM procedure (catalyst not printed here), toluene, 3 steps): 41%; ring closure, yield of all isomers ([2]; from C=CCCCN[C@@H](COC(=O)[C@@H](C)CC=C)c1ccccc1, 3 steps): 41%
7 | C[C@@H]1C/C=C/CCC(=O)N[C@H](c2ccccc2)COC1=O [Example C, (3R,11R,E)-11-methyl-3-phenyl-1-oxa-4-azacyclododec-8-ene-5,12-dione] | < 0.1 µM | < 0.1 µM | 100 to 1000 nM | ring closure, yield of all isomers ([2]; from C=CCCC(=O)N[C@@H](COC(=O)[C@H](C)CC=C)c1ccccc1, Grubbs II, 20.0 mM, 25.0 °C, 12.0 h): 37%
8 | N[C@@H]1C/C=C/C[C@@H](CC(=O)NCc2ccc(Cl)cc2)C(=O)NC[C@@H](c2ccccc2)OC1=O [Example CV, 2-((2R,6S,11R,E)-11-amino-5,12-dioxo-2-phenyl-1-oxa-4-azacyclododec-8-en-6-yl)-N-(4-chlorobenzyl)acetamide] | < 0.1 µM | < 0.1 µM | 100 to 1000 nM | 
9 | C[C@H]1[C@@H](c2ccccc2)OC(=O)CC/C=C/C[C@@H](CC(=O)NCc2ccc(Cl)cc2)C(=O)N1C [Example CZ, N-(4-chlorobenzyl)-2-((2R,3S,6S,E)-3,4-dimethyl-5,12-dioxo-2-phenyl-1-oxa-4-azacyclododec-8-en-6-yl)acetamide] | < 0.1 µM | 0.1 to 1 µM | 100 to 1000 nM | 

Continued, in another order:

Row | Kd (ShhN protein) | IC50 (Gli1) | IC50 (C3H10T1/2) | Compound | also measured
10 | < 0.1 µM | < 0.1 µM | 100 to 1000 nM | O=C(C[C@@H]1C/C=C/CCC(=O)N[C@@H](c2ccccc2)COC1=O)NCc1ccc(Cl)cc1 [Example DA, N-(4-chlorobenzyl)-2-((3S,11S,E)-5,12-dioxo-3-phenyl-1-oxa-4-azacyclododec-8-en-11-yl)acetamide] | 
11 | < 0.1 µM | > 100 µM | 100 to 1000 nM | CC(=O)N[C@H]1C/C=C/C[C@@H](CC(=O)NCc2ccc(Cl)cc2)C(=O)NC[C@@H](c2ccccc2)OC1=O [Example DJ, 2-((2R,6S,11S,E)-11-acetamido-5,12-dioxo-2-phenyl-1-oxa-4-azacyclododec-8-en-6-yl)-N-(4-chlorobenzyl)acetamide] | 
12 | < 0.1 µM | 0.1 to 1 µM | 1000 to 100000 nM | O=C1CC/C=C/C[C@@H](CC(=O)N2CCOCC2)C(=O)NC[C@@H](c2ccccc2)O1 [Example DK, (2R,6S,E)-6-(2-morpholino-2-oxoethyl)-2-phenyl-1-oxa-4-azacyclododec-8-ene-5,12-dione] | 
13 | < 0.1 µM | 0.1 to 1 µM | 1000 to 100000 nM | CC(=O)N[C@H]1C/C=C/C[C@@H](CC(=O)NCc2ccc(Cl)cc2)C(=O)N(C)[C@@H](C)[C@@H](c2ccccc2)OC1=O [Example DM, 2-((2R,3S,6S,11S,E)-11-acetamido-3,4-dimethyl-5,12-dioxo-2-phenyl-1-oxa-4-azacyclododec-8-en-6-yl)-N-(4-chlorobenzyl)acetamide] | 
14 | < 0.1 µM | 0.1 to 1 µM | 1000 to 100000 nM | CN1CCC(CNC(=O)C[C@@H]2C/C=C/CCC(=O)O[C@H](c3ccccc3)CNC2=O)CC1 [Example DN, 2-((2R,6S,E)-5,12-dioxo-2-phenyl-1-oxa-4-azacyclododec-8-en-6-yl)-N-((1-methylpiperidin-4-yl)methyl)acetamide] | 
15 | < 0.1 µM | < 0.1 µM | 1000 to 100000 nM | O=C(C[C@@H]1C[C@H](O)[C@@H](O)CCC(=O)N[C@H](c2ccccc2)COC1=O)NCc1ccc(Cl)cc1 [Example E, N-(4-chlorobenzyl)-2-((3R,8S,9S,11S)-8,9-dihydroxy-5,12-dioxo-3-phenyl-1-oxa-4-azacyclododecan-11-yl)acetamide] | 
16 | < 0.1 µM | < 0.1 µM | 1000 to 100000 nM | CC1(C)O[C@H]2CCC(=O)O[C@H](c3ccccc3)CNC(=O)[C@H](CC(=O)NCc3ccc(Cl)cc3)C[C@@H]2O1 [Example I, N-(4-chlorobenzyl)-2-((3aS,8R,12S,13aS)-2,2-dimethyl-6,11-dioxo-8-phenyldecahydro-3aH-[1,3]dioxolo[4,5-h][1,4]oxaazacyclododecin-12-yl)acetamide] | 
